{
  "source": "patent US20180037909A1",
  "about": "“MODIFIED CANCER CELL LINES AND USES THEREOF” (Chang Gung Memorial Hospital, Linkou, priority 2016, published 2018)",
  "key": {"MCF7 breast cancer cells": {"tested_on": "MCF7 breast cancer cells", "assay": "Cell growth monitored by xCELLigence System", "type": "cell-based", "details": "FIG. 9", "procedure": "An in vitro evaluation of the effect of ST3Gal1 siRNA (to knock down ST3Gal1 expression) and anti-cancer agent was performed using breast cancer cells.\nMCF7 breast cancer cells were treated with one of the regimes in Table 2 and cell growth was monistored by xCELLigence System (ACEA Biosciences, Inc., USA)"}, "[1]": {"molecular_target": "CD55 from MDA-MB-231 breast cancer cells transfected with ST3Gal1 siRNA (UniProt P08174)", "sequence (P08174 35-353 limits assumed)": "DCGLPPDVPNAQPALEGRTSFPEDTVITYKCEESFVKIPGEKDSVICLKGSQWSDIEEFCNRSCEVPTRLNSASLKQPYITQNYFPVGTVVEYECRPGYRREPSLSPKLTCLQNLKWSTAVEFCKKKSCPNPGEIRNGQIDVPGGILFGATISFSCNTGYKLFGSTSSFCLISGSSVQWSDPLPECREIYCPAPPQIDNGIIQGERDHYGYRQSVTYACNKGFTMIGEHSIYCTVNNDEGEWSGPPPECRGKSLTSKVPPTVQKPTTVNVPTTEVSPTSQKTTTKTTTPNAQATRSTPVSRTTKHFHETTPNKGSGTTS", "assay": "CD55 signal in PNA precipitate of lysate, ST3Gal1 siRNA cells against scramble siRNA cells"}, "CD55 [2]": {"tested_on": "CD55", "assay": "PNA lectin blot / PNA precipitation of cell lysates with mass spectrometry and CD55 blot", "type": "cell-based", "details": "breast cancer cells", "procedure": "To examine the protein target of ST3Gal1 in breast cancer cells, total cell lysates from scramble or ST3Gal1 siRNA treated breast cancer cells were prepared for PNA lectin blot analysis after precipitation with agarose bound PNA. ST3Gal1 catalyzes the sialylation of galactosyl (β-1, 3) N-acetylgalactosamine, by adding sialic acid to Core 1 O-glycans. Since Peanut agglutinin (PNA) binds preferentially to Core 1 O-glycans (without the added sialic acid), ST3Gal1 knock down is expected to increase PNA binding to Core 1 O-glycans.\nAs expected, PNA-binding signals in breast cancer cells increased at about 72, 130 and 250 kDa molecular weight, after ST3Gal1 knock down (FIG. 1B). Using in-gel digestion and LTQ-FTD MASS spectrometry, CD55 was identified as one of the PNA-binding proteins with increased signal (by 2.6 folds) after ST3Gal1 knock down and the molecular weight of CD55 is slightly lower in ST3Gal1 silenced cells (FIG. 1C). However, the total CD55 protein levels remained similar (sc vs. si: 1.0 vs. 1.1) (FIG. 1D)."}, "[3]": {"tested_on": "C3 deposit on breast cancer cells", "assay": "C3 deposition on cancer cell surface by flow cytometry with anti-C3 antibody", "type": "cell-based", "details": "human serum, non-lytic conditions", "procedure": "An in vitro evaluation was performed to assess the decay-accelerating ability of ST3Gal1 silenced breast cancer cells with de-sialylated CD55, by measuring the deposition of C3 fragments on the cancer cell surface.\nBreast cancer cells were incubated under non-lytic conditions with human serum and deposited C3 were detected by flow cytometric analysis using anti-C3 antibody. […] There is minimal C3 deposit in both scramble RNA (sc) and ST3Gal1 siRNA (si) transfected breast cancer cells in the absence of anti-HLA antibody (geometric mean fluorescence: sc, 31.5±0.2×10^3; si, 35.2±0.6×10^3)."}, "CD46 and CD59": {"tested_on": "CD46 and CD59", "assay": "Western blot of CDC regulatory proteins", "type": "cell-based", "details": "breast cancer cells; FIG. 2B", "excerpt": "In addition, the expression levels of CD46 or CD59 were unaffected in breast cancer cells transfected with ST3Gal1 siRNA."}, "ST3Gal1 mRNA": {"tested_on": "ST3Gal1 mRNA", "assay": "ST3Gal1 mRNA expression by qPCR, normalized to GAPDH mRNA", "type": "cell-based", "details": "MDA-MB-231 breast cancer cells; for expression of ST3Gal1 RNA compared to sc RNA, siRNA-A or pVoid transfected cells: FIG. 8A-8C", "procedure": "MDA-MB-231 breast cancer cells (available from Bioresource Collection and Research Center, Taiwan) were transfected with scramble siRNA (sc) or ST3Gal1 (si) siRNA with an antisense strand (SEQ ID NO:2) and a sense strand (SEQ ID NO:3). The expression levels of the ST3Gal1 mRNA were analyzed by qPCR analysis and normalized to GAPDH mRNA levels.\nMDA-MB-231 breast cancer cells were transfected with scramble siRNA (sc), a vector without shRNA (pVoid), shRNA1-3 (SEQ ID NO:11), shRNA 1-4 (SEQ ID NO:12), or the siRNA listed in Table 1 below:\nThe expression levels of the ST3Gal1 mRNA were analyzed by qPCR analysis and normalized to GAPDH mRNA levels."}, "MDA-MB-231 cells": {"tested_on": "MDA-MB-231 cells", "assay": "ADCC assay with human PBMC effectors and anti-SSEA4 antibody", "type": "cell-based", "details": "anti-SSEA4 antibody, Effector:Target ratio 10:1", "procedure": "(§1) MDA-MB-231 breast cancer cells were transfected with scramble RNA (sc) or ST3Gal1 siRNA (si) according to Example 1. After four days, cells were collected and analyzed for the expression of membrane complement regulatory proteins (mCRPs) and target antigen by fluorescence-activated cell sorting (FACS). There was no change in the expression levels of mCRPs (CD46, CD55, and CD59) and target antigens (HLA and SSEA4) with ST3Gal1 silencing.\nADCC assay was performed using human PBMC cells as effectors, anti-SSEA4 as antibody, and ST3Gal1siRNA transfected MDA-MB-231 cells as targets. […] The mean percentages of lysis are 24.2±1.7% and 41.5±2.4% for sc and si, respectively at Effector:Target ratio of 10:1 ratio (E/T10), and the difference is statistically significant."}, "CD55 [4]": {"tested_on": "CD55", "assay": "LC-MS/MS analysis of released, permethylated O-glycans of CD55", "details": "ST3Gal1 silenced vs sc transfected breast cancer cells", "excerpt": "The bi- and tri-antennary structures were all detected as glycoforms of the expected tryptic peptide […], previously reported as the single N-linked glycosylation site. […] The sialylation of core 1 and core 2 O-glycan on CD55 regulates the activity of CD55.\nImpairment of 2-3-sialylation of the O-glycans of the CD55 molecule increases non-sialylated core 1 and monosialylated core 2, at the expenses of disialylated core 2 structure. On the other hand, the relative amount of the monosialylated core 1 O-glycan of the CD55 molecule (m/z 895.462) was similar in ST3Gal1 silenced and sc transfected breast cancer cells, probably due to compensation of 2-6-sialylation."}, "[5]": {"tested_on": "Prostate cancer cells (PC3)", "assay": "AlamarBlue cell proliferation assay", "type": "cell-based", "details": "fluorescence 590 nm, FIG. 7A", "procedure": "(§2) Prostate cancer cells (PC3, Bioresource Collection and Research Center, Taiwan) and neuroblastoma cells (SH-SY5Y, obtained from Professor Yi-Cheng Chen, Mackay Medical College, Taiwan) were transfected with a scramble RNA (sc) or ST3Gal1 siRNA (si) according to Example 1. The cell proliferation was determined by AlamarBlue assay using Victor X3 plate reader to measure the fluorescence (590 nm) that was used to present the level of cell proliferation."}, "[6]": {"tested_on": "neuroblastoma cells (SH-SY5Y)", "assay": "AlamarBlue cell proliferation assay", "type": "cell-based", "details": "fluorescence 590 nm, FIG. 7B", "procedure": "as §2"}, "[7]": {"tested_on": "mCRPs (CD46, CD55, and CD59) and target antigens (HLA and SSEA4)", "assay": "FACS expression of membrane complement regulatory proteins and target antigens", "type": "cell-based", "details": "MDA-MB-231, four days after transfection", "excerpt": "as §1"}},
  "data": [
    {"molecule": "CC/C(=C(\\c1ccccc1)c1ccc(OCCN(C)C)cc1)c1ccccc1", "note": "[tamoxifen]", "values": [
      {"measurement": "Cancer cell viability", "setting": "MCF7 breast cancer cells", "value": 76, "unit": "%"}
    ]},
    {"molecule": "COc1cc2c(Nc3ccc(Br)cc3F)ncnc2cc1OCC1CCN(C)CC1", "note": "[vandetanib]", "values": [
      {"measurement": "Cancer cell viability", "setting": "MCF7 breast cancer cells", "value": 37.5, "unit": "%"}
    ]},
    {"molecule": "Peanut agglutinin (PNA) (from UniProt P02872 24-259)", "values": [
      {"measurement": "fold increase of signal after ST3Gal1 knock down (against scramble siRNA cells)", "setting": "[1]", "value": 2.6, "unit": "fold"}
    ]},
    {"molecule": "ST3Gal1 siRNA: ST3Gal1 siRNA with an antisense strand (SEQ ID NO:2) and a sense strand (SEQ ID NO:3) (sense CCGGUUCCUGCAAAGAUCAGAGUGA; antisense UCACUCUGAUCUUUGCAGGAACCGG; listed as RNA, chemistry not given here)", "values": [
      {"measurement": "increase of CD55 PNA-binding signal after ST3Gal1 knock down", "setting": "CD55 [2]; FIG. 1C", "value": 2.6, "unit": "folds"},
      {"measurement": "total CD55 protein levels (sc = 1.0)", "setting": "CD55 [2]; FIG. 1D", "value": 1.1},
      {"measurement": "C3 deposit, geometric mean fluorescence", "setting": "[3]; 10 μg/ml anti-HLA antibody", "value": "89.5±5.5×10^3"},
      {"measurement": "C3 deposit, geometric mean fluorescence", "setting": "[3]; 25 μg/ml anti-HLA antibody", "value": "164.8±0.8×10^3"},
      {"measurement": "C3 deposit, geometric mean fluorescence", "setting": "[3]; absence of anti-HLA antibody", "value": "35.2±0.6×10^3"},
      {"measurement": "expression levels of CD46 or CD59", "setting": "CD46 and CD59", "value": "unaffected"},
      {"measurement": "expression of ST3Gal1 RNA, % of that of sc transfected breast cancer cells", "setting": "ST3Gal1 mRNA; normalized to GAPDH mRNA", "value": "28.5±8.2", "unit": "%"},
      {"measurement": "mean percentage of lysis (ADCC)", "setting": "MDA-MB-231 cells", "value": "41.5±2.4", "unit": "%"},
      {"measurement": "relative amount of monosialylated core 1 O-glycan of CD55 (m/z 895.462)", "setting": "CD55 [4]", "value": "similar"},
      {"measurement": "relative amount of disialylated core 2 structure at m/z 864.426 (2+) on CD55", "setting": "CD55 [4]; FIG. 6B", "value": "significantly reduced"},
      {"measurement": "relative amount of monosialylated core 2 structure at m/z 683.839 (2+) on CD55", "setting": "CD55 [4]; FIG. 6B", "value": "increased"},
      {"measurement": "proliferation of prostate cancer cells compared to sc RNA", "setting": "[5]", "value": "significantly reduced"},
      {"measurement": "proliferation of neuroblastoma cells compared to sc RNA", "setting": "[6]", "value": "significantly reduced"},
      {"measurement": "expression levels of mCRPs (CD46, CD55, CD59) and target antigens (HLA, SSEA4)", "setting": "[7]", "value": "no change"},
      {"measurement": "Cancer cell viability", "setting": "MCF7 breast cancer cells", "value": 65, "unit": "%"}
    ]},
    {"molecule": "shRNA1-3: shRNA1-3 (SEQ ID NO:11) (CCGGGCTGGGAGATAATGTCAGCATCTCGAGATGCTGACATTATCTCCCAGCTTTTTG)", "values": [
      {"measurement": "expression of ST3Gal1 RNA compared to sc RNA, siRNA-A or pVoid transfected cells", "setting": "ST3Gal1 mRNA", "value": "reduced"}
    ]},
    {"molecule": "shRNA1-4: shRNA 1-4 (SEQ ID NO:12) (CCGGGCGGGAGAAGAAGCCCAATAACTCGAGTTATTGGGCTTCTTCTCCCGCTTTTTG)", "values": [
      {"measurement": "expression of ST3Gal1 RNA compared to sc RNA, siRNA-A or pVoid transfected cells", "setting": "ST3Gal1 mRNA", "value": "reduced"}
    ]},
    {"molecule": "siRNA-1: siRNA, antisense AUCUCAGGCCCAUAAGAAGACUCCC (SEQ ID NO: 4), sense GGGAGUCUUCUUAUGGGCCUGAGAU (SEQ ID NO: 5) (listed as RNA, chemistry not given here)", "values": [
      {"measurement": "expression of ST3Gal1 RNA compared to sc RNA, siRNA-A or pVoid transfected cells", "setting": "ST3Gal1 mRNA", "value": "reduced"}
    ]},
    {"molecule": "siRNA-2: siRNA, antisense UCAUGCUGACAUUAUCUCCCAGCUC (SEQ ID NO: 6), sense GAGCUGGGAGAUAAUGUCAGCAUGA (SEQ ID NO: 7) (listed as RNA, chemistry not given here)", "values": [
      {"measurement": "expression of ST3Gal1 RNA compared to sc RNA, siRNA-A or pVoid transfected cells", "setting": "ST3Gal1 mRNA", "value": "reduced"}
    ]},
    {"molecule": "siRNA-3: siRNA, antisense UUGAGAAGAUGACCGAGAGGAUGCC (SEQ ID NO: 8), sense GGCAUCCUCUCGGUCAUCUUCUCAA (SEQ ID NO: 9) (listed as RNA, chemistry not given here)", "values": [
      {"measurement": "expression of ST3Gal1 RNA compared to sc RNA, siRNA-A or pVoid transfected cells", "setting": "ST3Gal1 mRNA", "value": "reduced"}
    ]}
  ]
}
